Measurements as given in ChEMBL document CHEMBL1201862, “PubChem BioAssay data set” (2004).
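Results reflect a 48-hour exposure of cells in 96-well plates to compound at five concentrations. GI50 = concentration required for 50% inhibition of growth.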 Active and inactive are the calls of the source. Cut-off read from the data, not from the text of the source: active = GI50 up to about 1.1 µM and inactive = higher.

Legend:
Assay in all cases: DTP human tumour cell line panel, 48 h
IGROV-1 = test system: IGROV-1
T47D = test system: T47D
SF-268 = test system: SF-268
SF-295 = test system: SF-295
UO-31 = test system: UO-31
COLO 205 = test system: COLO 205
SN12C = test system: SN12C
MDA-N = test system: MDA-N
NCI-H460 = test system: NCI-H460
MOLT-4 = test system: MOLT-4
HCT-15 = test system: HCT-15
NCI-H226 = test system: NCI-H226
HCC 2998 = test system: HCC 2998
PC-3 = test system: PC-3
UACC-62 = test system: UACC-62
EKVX = test system: EKVX
RPMI-8226 = test system: RPMI-8226
NCI-H522 = test system: NCI-H522
HL-60 = test system: HL-60
SK-MEL-28 = test system: SK-MEL-28

Row | SMILES | GI50 (IGROV-1) | GI50 (T47D) | GI50 (SF-268) | GI50 (SF-295) | GI50 (UO-31) | GI50 (COLO 205) | GI50 (SN12C) | GI50 (MDA-N) | GI50 (NCI-H460) | GI50 (MOLT-4) | GI50 (HCT-15) [µM] | GI50 (NCI-H226) | GI50 (HCC 2998) | GI50 (PC-3) | GI50 (UACC-62) | GI50 (EKVX) | GI50 (RPMI-8226) | GI50 (NCI-H522) | GI50 (HL-60) | GI50 (SK-MEL-28)
1 | C=CCCCCCCCCCOC1C=CC(O)C(CO)O1 (stereo not given) | 16.6 µM (inactive) | 52.2 µM (inactive) | 54.8 µM (inactive) | 66.2 µM (inactive) | 35.8 µM (inactive) | 37.1 µM (inactive) | 49.5 µM (inactive) | 33.3 µM (inactive) | 25.2 µM (inactive) | 25.5 µM (inactive) | 35.1 | > 100 µM (inactive) | 41.1 µM (inactive) | 26.5 µM (inactive) | 27.8 µM (inactive) | 39.2 µM (inactive) | 14.9 µM (inactive) | 33.2 µM (inactive) | 21.9 µM (inactive) | 41.6 µM (inactive)
2 | CC(=O)O[C@H]1[C@@H](N2CCN(C)CC2)C[C@H]2[C@@H]3CC=C4C[C@@H](N5CCCC5)CC[C@]4(C)[C@H]3CC[C@@]21C | 68.4 µM (inactive) | > 100 µM (inactive) | 47.6 µM (inactive) | 21.7 µM (inactive) | 34.9 µM (inactive) | 3.85 µM (inactive) | > 100 µM (inactive) | 26.1 µM (inactive) | 60.5 µM (inactive) | 15.6 µM (inactive) | 26.1 | > 100 µM (inactive) | 17.2 µM (inactive) | 40.9 µM (inactive) | 59.4 µM (inactive) | 74.5 µM (inactive) | 19.2 µM (inactive) | 23.4 µM (inactive) | 11.2 µM (inactive) | 28.1 µM (inactive)
3 | Cc1nc2ccccc2n1Cc1ccc(NC(=S)Nc2ccccc2)cc1 | > 100 µM (inactive) | 18.6 µM (inactive) | 91 µM (inactive) | 34.3 µM (inactive) | > 100 µM (inactive) | 34.8 µM (inactive) | 76.4 µM (inactive) | 31 µM (inactive) | 92.3 µM (inactive) | 23.3 µM (inactive) | 72.8 | 82.4 µM (inactive) | 92 µM (inactive) | 75.7 µM (inactive) | 58.7 µM (inactive) | 21.1 µM (inactive) | 50 µM (inactive) | 21.9 µM (inactive) | 24.8 µM (inactive) | 66.7 µM (inactive)
4 | O=[N+]([O-])c1ccc(C(O)(C#CCN2CCCC2)c2ccccc2)cc1 (stereo not given) | 25.8 µM (inactive) | 28.5 µM (inactive) | 27 µM (inactive) | 30.4 µM (inactive) | 26.1 µM (inactive) | 18 µM (inactive) | 38.3 µM (inactive) | 34.1 µM (inactive) | 56.2 µM (inactive) | 25.8 µM (inactive) | 60.7 | 81.5 µM (inactive) | 16.2 µM (inactive) | 30.4 µM (inactive) | 24.7 µM (inactive) | 54.6 µM (inactive) | 26.7 µM (inactive) | 22.4 µM (inactive) | 18.4 µM (inactive) | 17.6 µM (inactive)
5 | O=C1c2c(O)ccc(O)c2C(=O)c2c(NCCNC(=O)C(O)C(O)C(O)C(O)CO)ccc(NCCNC(=O)C(O)C(O)C(O)C(O)CO)c21 (stereo not given) | < 0.0383 µM (active) | 0.0102 µM (active) | 0.0241 µM (active) | < 0.01 µM (active) | 0.0186 µM (active) | < 0.01 µM (active) | < 0.01 µM (active) | < 0.0494 µM (active) | < 0.01 µM (active) | < 0.01 µM (active) | 0.0138 | < 0.0126 µM (active) | 0.135 µM (active) | 0.131 µM (active) | 0.0154 µM (active) | 0.165 µM (active) | < 0.01 µM (active) | < 0.02 µM (active) | < 0.01 µM (active) | 0.211 µM (active)
